Test results: US12098145B2 (Libra Therapeutics, Inc., priority 2022, dated 2024)
Like-named read-outs stand apart in the source and are kept apart here.

Experiments:
TRPML1 = biological target: T1, TRPML1 (Homo sapiens, UniProt Q9GZU1); experiment: Cellular TRPML1 assay (FLIPR, GCaMP6f calcium read-out); type: cell-based
T1 construct: expressed in transfected cells; host or cells: HEK T-REx cells stably expressing GCaMP6f and TRPML1
Procedure, shortened: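 Read-out is GCaMP6f fluorescence over 300 s after compound addition in Ca2+-free Tyrode's buffer, final DMSO 0.5%, on FLIPR Tetra. Cells are HEK T-REx stably co-expressing the indicator and TRPML1, plated 24 h earlier in Optimem + 0.5% FBS and pre-incubated ~10 min at room temperature.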

TFEB = TFEB translocation assay (TFEB reporter in U2OS cells, imaging); type: cell-based; details: Homo sapiens; U2OS cell line with TFEB reporter, 2 hours incubation, nucleus to cytoplasm ratio, normalized to Torin-1; read-out: TFEB Translocation pEC50 (converted)
Experimental: Example B: TFEB Translocation Assay
Reporter TFEB: the reporter is fused to a sequence of monomeric red fluorescent protein.
The reporter TFEB have been stably expressed in U2OS cell line and used as read-out.
Experiments were performed in 384 MTP well format. Cells were seeded in 384-w at a density of 4000 cells/well in 20 μl/well complete growth medium without antibiotics. Twenty-four hours later, cells were treated with compounds and incubated for further 2 hours. Then the cells were imaged and assayed for the response to various compounds using the reporter for TFEB expressed in the cells as readout.
The experiments were performed in a 384-well format according to the following procedure: • 24 h after seeding, cell culture medium was carefully removed and replaced with 20 μl of Opti-MEM (30′ incubation at 37° C. before compound addition) • Then, cells were incubated with compounds diluted in Opti-MEM+0.015% Tween 80 at the desired concentration, with the reference molecule (agonist) Torin-1 at a top concentration of 1 μM (max signal), and with the other reference molecule (agonist) MLSA-5 at top concentration of 20 μM for 2 hours at 37° C. and 5% CO2. The final percentage of DMSO was 0.5% in all the conditions. • Staining of the nuclei was obtained by incubating the cells with 24 μM/well of Hoechst 3342 in standard Tyrode's buffer for 15 min at RT • Then the cells were fixed with PFA 4% for 30 min at RT • After three washes with standard Tyrode's buffer, samples were acquired by recording two fluorescence emission channels (DS-red and blue) at 20× magnification and with at least 3 fields of view per well in an Operetta CLS microscope (PerkinElmer). • Image analysis was performed by using Harmony software (PerkinElmer). The image analysis involved the following steps: flat-field illumination correction, nuclei segmentation, cytoplasm segmentation and calculation of intensity fluorescence in the cytosol and nuclei compartments. Measurements of signal intensity ratio (nucleus to cytoplasm) was used to obtain information on the effects of compounds on the TFEB translocation. • Data from image analysis measurements were finally loaded and analyzed for normalization and fitting procedures in Genedata Screener© software. Data Analysis
Feature: Mean translocation ratio (mean/well)
Data normalization: Stimulator—Neutral control
The GeneData Screener method we have used, normalizes the median of the Stimulator control wells (Torin-1) to 100% and the median of the Neutral control wells (DMSO) to 0% Activity[%]=100*(x−<Min>)/(<“Max”>−<Min>)

[1] = HEKT-REx/GCaMP6f/TRPML1 cells, FLIPR TETRA, kinetic response over 300 seconds, read-out: TRPML1 FLIPR pEC50 (converted)

T1 sequence (Q9GZU1 whole entry): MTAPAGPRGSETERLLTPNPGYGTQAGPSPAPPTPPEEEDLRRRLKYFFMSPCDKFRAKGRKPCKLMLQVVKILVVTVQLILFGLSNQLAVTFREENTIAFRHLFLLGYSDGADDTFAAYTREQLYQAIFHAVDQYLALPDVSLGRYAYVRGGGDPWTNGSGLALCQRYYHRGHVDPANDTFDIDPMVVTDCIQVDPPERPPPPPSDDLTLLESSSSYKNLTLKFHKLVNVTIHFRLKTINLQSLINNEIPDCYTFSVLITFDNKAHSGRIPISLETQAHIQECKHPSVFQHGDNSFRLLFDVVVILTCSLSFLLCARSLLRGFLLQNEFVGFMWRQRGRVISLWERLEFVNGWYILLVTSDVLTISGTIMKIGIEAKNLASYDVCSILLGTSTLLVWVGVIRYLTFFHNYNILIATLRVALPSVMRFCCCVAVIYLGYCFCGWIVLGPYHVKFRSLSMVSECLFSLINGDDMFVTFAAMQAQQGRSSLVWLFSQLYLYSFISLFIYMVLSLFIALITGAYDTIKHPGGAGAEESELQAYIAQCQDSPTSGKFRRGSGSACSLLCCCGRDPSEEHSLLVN

Row | Compound | EC50 (TRPML1; [1]) | EC50 (TFEB) | EC50 (TRPML1)
1 | COC1(C)CN(c2nc(C(=O)Nc3cc(C)c(O[C@@H]4C[C@@H]5C[C@@H]5C4)c(F)c3)c(CCF)o2)C1 [Example 280, N-(4-(cis-bicyclo[3.1.0]hexan-3-yloxy)-3-fluoro-5-methylphenyl)-5-(2-fluoroethyl)-2-(3-methoxy-3-methylazetidin-1-yl)oxazole-4-carboxamide] | 10 to 1000 nM | 10 to 1000 nM | 
2 | CC1(CO)CN(c2nc(C(=O)Nc3ccc(OC4CC5CC(C5)C4)c(F)c3)c(CC(F)(F)F)o2)C1 (stereo not shown) [Example 135, N-(4-(bicyclo[3.1.1]heptan-3-yloxy)-3-fluorophenyl)-2-(3-(hydroxymethyl)-3-methylazetidin-1-yl)-5-(2,2,2-trifluoroethyl)oxazole-4-carboxamide] | 10 to 1000 nM | 10 to 1000 nM | 
3 | CC1(C)CN(c2nc(C(=O)Nc3ccc(OC4CCCC4(F)F)c(F)c3)c(CC(F)(F)F)o2)C1 (stereo not shown) [Example 20, N-(4-((2,2-difluorocyclopentyl)oxy)-3-fluorophenyl)-2-(3,3-dimethylazetidin-1-yl)-5-(2,2,2-trifluoroethyl)oxazole-4-carboxamide] | 10 to 1000 nM | 10 to 1000 nM | 
4 | COCc1oc(N2CC(C)(CO)C2)nc1C(=O)Nc1cc(C)c(OC2CC3CC(C3)C2)c(F)c1 (stereo not shown) [Example 296, N-(4-(bicyclo[3.1.1]heptan-3-yloxy)-3-fluoro-5-methylphenyl)-2-(3-(hydroxymethyl)-3-methylazetidin-1-yl)-5-(methoxymethyl)oxazole-4-carboxamide] | 10 to 1000 nM | 10 to 1000 nM | 
5 | COC1(C)CN(c2nc(C(=O)Nc3cc(C)c(O[C@@H]4C[C@@H]5C[C@@H]5C4)c(F)c3)c(CC(F)(F)F)o2)C1 [Example 164, N-(4-(cis-bicyclo[3.1.0]hexan-3-yloxy)-3-fluoro-5-methylphenyl)-2-(3-methoxy-3-methylazetidin-1-yl)-5-(2,2,2-trifluoroethyl)oxazole-4-carboxamide] | 10 to 1000 nM | 10 to 1000 nM | 
6 | CCc1oc(N2CCCC2)nc1C(=O)Nc1cc(F)c(OC2CC3C[C@H]3C2)c(Cl)c1 (stereo partly drawn) [Example 222, N-(4-(cis-bicyclo[3.1.0]hexan-3-yloxy)-3-chloro-5-fluorophenyl)-5-ethyl-2-(pyrrolidin-1-yl)oxazole-4-carboxamide] |  | 10 to 1000 nM | 
7 | CC1(C)CN(c2nc(C(=O)Nc3cc(F)c(N4C5CCCC4CC5)c(F)c3)c(CC(F)(F)F)o2)C1 [Example 200, N-(4-(8-azabicyclo[3.2.1]octan-8-yl)-3,5-difluorophenyl)-2-(3,3-dimethylazetidin-1-yl)-5-(2,2,2-trifluoroethyl)oxazole-4-carboxamide] |  | 10 to 1000 nM | 10 to 1000 nM
8 | COCc1oc(N2CC(C)(OC)C2)nc1C(=O)Nc1cc(C)c(O[C@@H]2C[C@@H]3C[C@@H]3C2)c(F)c1 [Example 294, N-(4-(cis-bicyclo[3.1.0]hexan-3-yloxy)-3-fluoro-5-methylphenyl)-2-(3-methoxy-3-methylazetidin-1-yl)-5-(methoxymethyl)oxazole-4-carboxamide] | 10 to 1000 nM | 10 to 1000 nM | 
9 | CCC1(CC)CN(c2nc(C(=O)Nc3cc(F)c(O[C@@H]4C[C@@H]5C[C@@H]5C4)c(Cl)c3)c(CC(F)(F)F)o2)C1 [Example 127, N-(4-(cis-bicyclo[3.1.0]hexan-3-yloxy)-3-chloro-5-fluorophenyl)-2-(3,3-diethylazetidin-1-yl)-5-(2,2,2-trifluoroethyl)oxazole-4-carboxamide] | 10 to 1000 nM | 10 to 1000 nM | 
10 | CCC1(CC)CN(c2nc(C(=O)Nc3cc(O)c(OC4CC5CC(C5)C4)c(F)c3)c(CC(F)(F)F)o2)C1 (stereo not shown) [Example 264, N-(4-(bicyclo[3.1.1]heptan-3-yloxy)-3-fluoro-5-hydroxyphenyl)-2-(3,3-diethylazetidin-1-yl)-5-(2,2,2-trifluoroethyl)oxazole-4-carboxamide] | 10 to 1000 nM | 10 to 1000 nM | 
11 | CC1(C)CCCC1Oc1ccc(NC(=O)c2nc(N3CCCC3)oc2CC(F)(F)F)cc1F (stereo not shown) [Example 55, N-(4-((2,2-dimethylcyclopentyl)oxy)-3-fluorophenyl)-2-(pyrrolidin-1-yl)-5-(2,2,2-trifluoroethyl)oxazole-4-carboxamide] | 1000 to 10000 nM | 1000 to 10000 nM | 
12 | CCc1oc(N2CC(CC)(OC)C2)nc1C(=O)Nc1ccc(OC2CC3CC(C3)C2)c(F)c1 (stereo not shown) [Example 228, N-(4-(bicyclo[3.1.1]heptan-3-yloxy)-3-fluorophenyl)-5-ethyl-2-(3-ethyl-3-methoxyazetidin-1-yl)oxazole-4-carboxamide] | 10 to 1000 nM | 10 to 1000 nM | 
13 | CCc1oc(N2CC(C)(OC)C2)nc1C(=O)Nc1cc(C)c(OC2CC3C[C@H]3C2)c(F)c1 (stereo partly drawn) [Example 226, N-(4-(cis-bicyclo[3.1.0]hexan-3-yloxy)-3-fluoro-5-methylphenyl)-5-ethyl-2-(3-methoxy-3-methylazetidin-1-yl)oxazole-4-carboxamide] |  | 10 to 1000 nM | 
14 | O=C(Nc1cc(F)c(OC2CC3C[C@@H]3C2)c(F)c1)c1nc(N2CC3(CCOCC3)C2)oc1CC(F)(F)F (stereo partly drawn) [Example 188, N-(4-(cis-bicyclo[3.1.0]hexan-3-yloxy)-3,5-difluorophenyl)-2-(7-oxa-2-azaspiro[3.5]nonan-2-yl)-5-(2,2,2-trifluoroethyl)oxazole-4-carboxamide] |  | 10 to 1000 nM | 
15 | CCCc1oc(N2CCCC2)nc1C(=O)Nc1cc(F)c(OC2CC3C[C@H]3C2)c(F)c1 (stereo partly drawn) [Example 274, N-(4-(cis-bicyclo[3.1.0]hexan-3-yloxy)-3,5-difluorophenyl)-5-propyl-2-(pyrrolidin-1-yl)oxazole-4-carboxamide] |  | 10 to 1000 nM | 
16 | O=C(Nc1cc(F)c(OC2CC3C[C@H]3C2)c(F)c1)c1nc(N2CC3(CCOC3)C2)oc1CC(F)(F)F (stereo partly drawn) [Example 189, N-(4-(cis-bicyclo[3.1.0]hexan-3-yloxy)-3,5-difluorophenyl)-2-(6-oxa-2-azaspiro[3.4]octan-2-yl)-5-(2,2,2-trifluoroethyl)oxazole-4-carboxamide] |  | 10 to 1000 nM | 
17 | CCc1oc(N2CC(CC)(CO)C2)nc1C(=O)Nc1cc(F)c(OC2CC3C[C@H]3C2)c(Cl)c1 (stereo partly drawn) [Example 220, N-(4-(cis-bicyclo[3.1.0]hexan-3-yloxy)-3-chloro-5-fluorophenyl)-5-ethyl-2-(3-ethyl-3-(hydroxymethyl)azetidin-1-yl)oxazole-4-carboxamide] |  | 10 to 1000 nM | 
18 | CCC1(OC)CN(c2nc(C(=O)Nc3cc(F)c(OC4C[C@@H]5CC[C@H]4C5)c(F)c3)c(CC(F)(F)F)o2)C1 (stereo partly drawn) [Example 151, N-(4-(((1S,4R)-bicyclo[2.2.1]heptan-2-yl)oxy)-3,5-difluorophenyl)-2-(3-ethyl-3-methoxyazetidin-1-yl)-5-(2,2,2-trifluoroethyl)oxazole-4-carboxamide] | 10 to 1000 nM |  | 
19 | O=C(Nc1ccc(N2CCCCC2)c(F)c1)c1nc(N2C[C@H]3CCO[C@H]3C2)oc1CC(F)(F)F [Example 26, 2-[(3aR,6aR)-hexahydro-5H-furo[2,3-c]pyrrol-5-yl]-N-[3-fluoro-4-(piperidin-1-yl)phenyl]-5-(2,2,2-trifluoroethyl)oxazole-4-carboxamide] | 1000 to 10000 nM |  | 
20 | CCN(c1ccc(NC(=O)c2nc(N3CCCC3)oc2CC(F)(F)F)cc1F)C1CCCC1(F)F (stereo not shown) [Example 87, N-(4-((2,2-difluorocyclopentyl)(ethyl)amino)-3-fluorophenyl)-2-(pyrrolidin-1-yl)-5-(2,2,2-trifluoroethyl)oxazole-4-carboxamide] | 10000 to 100000 nM |  | 
